# Target: Mitogen-activated protein kinase 10 (Homo sapiens, UniProt P53779)
# Assay: Inhibition of JNK3 by nonradioactive JNK3 assay
# Mitogen-activated protein kinase 10, sequence (P53779 whole entry): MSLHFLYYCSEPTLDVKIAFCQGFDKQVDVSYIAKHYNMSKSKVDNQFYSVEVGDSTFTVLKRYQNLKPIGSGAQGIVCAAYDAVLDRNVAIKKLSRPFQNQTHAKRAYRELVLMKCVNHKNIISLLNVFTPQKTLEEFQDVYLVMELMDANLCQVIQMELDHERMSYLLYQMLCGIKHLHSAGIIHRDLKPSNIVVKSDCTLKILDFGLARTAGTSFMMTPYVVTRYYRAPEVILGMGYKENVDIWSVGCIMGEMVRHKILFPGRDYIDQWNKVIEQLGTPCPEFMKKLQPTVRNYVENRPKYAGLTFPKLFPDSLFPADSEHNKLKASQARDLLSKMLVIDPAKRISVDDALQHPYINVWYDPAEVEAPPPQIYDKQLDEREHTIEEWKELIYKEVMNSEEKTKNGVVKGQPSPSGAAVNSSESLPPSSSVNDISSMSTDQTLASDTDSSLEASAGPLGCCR
row,IC50,Structure (SMILES)
1,3950 nM,CC(C)Nc1cc(-c2nc3ccccc3nc2-c2ccc(F)cc2)ccn1

# Target: T1, Mitogen-activated protein kinase 14 (Homo sapiens, UniProt Q16539)
# Assay: Inhibition of p38alpha-mediated ATF2 phosphorylation in presence of ATP
# T1 sequence (Q16539 whole entry): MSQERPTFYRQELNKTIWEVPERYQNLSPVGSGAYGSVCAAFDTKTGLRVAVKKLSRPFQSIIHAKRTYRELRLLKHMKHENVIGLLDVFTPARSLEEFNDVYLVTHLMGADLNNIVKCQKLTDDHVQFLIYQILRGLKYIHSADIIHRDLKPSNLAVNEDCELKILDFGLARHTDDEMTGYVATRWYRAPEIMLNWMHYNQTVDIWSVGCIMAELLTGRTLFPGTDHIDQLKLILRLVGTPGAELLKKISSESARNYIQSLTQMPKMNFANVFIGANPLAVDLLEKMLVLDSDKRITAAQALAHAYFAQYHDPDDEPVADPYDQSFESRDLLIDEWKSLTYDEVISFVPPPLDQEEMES
row,Structure (SMILES),IC50
1,Cc1cc2nc(-c3ccc(F)cc3)c(-c3ccnc(NC(C)C)c3)nc2cc1C,238 nM
2,CC(C)[C@@H](C)Nc1cc(-c2nc3ccccc3nc2-c2ccc(F)cc2)ccn1,1590 nM
3,CC(C)Nc1cc(-c2nc3cc(Cl)c(Cl)cc3nc2-c2ccc(F)cc2)ccn1,412 nM
4,O[C@H]1CC[C@H](Nc2cc(-c3nc4ccccc4nc3-c3ccc(F)cc3)ccn2)CC1,211 nM
5,C[C@H](Nc1cc(-c2nc3ccccc3nc2-c2ccc(F)cc2)ccn1)c1ccccc1,431 nM
6,CC(C)C(C)Nc1cc(-c2nc3cc(Cl)c(Cl)cc3nc2-c2ccc(F)cc2)ccn1 (stereo not given),9460 nM
7,CCC(C)Nc1cc(-c2nc3cc(C)c(C)cc3nc2-c2ccc(F)cc2)ccn1 (stereo not given),595 nM
8,Cc1cc2nc(-c3ccc(F)cc3)c(-c3ccnc(NC(C)C(C)C)c3)nc2cc1C (stereo not given),1380 nM
9,C[C@@H](Nc1cc(-c2nc3ccccc3nc2-c2ccc(F)cc2)ccn1)c1ccccc1,4790 nM
10,CC(Nc1cc(-c2nc3ccccc3nc2-c2ccc(F)cc2)ccn1)c1ccccc1 (stereo not given),720 nM
11,O[C@H]1CC[C@H](Nc2cc(-c3nc4cc(Cl)c(Cl)cc4nc3-c3ccc(F)cc3)ccn2)CC1,608 nM
12,Cc1cc2nc(-c3ccc(F)cc3)c(-c3ccnc(NCc4ccccc4)c3)nc2cc1C,1530 nM
13,Cc1cc2nc(-c3ccc(F)cc3)c(-c3ccnc(N[C@H]4CC[C@H](O)CC4)c3)nc2cc1C,259 nM

# Results, then the molecule that gave them:
row,IC50,Structure (SMILES)
1,114 nM,CCC(C)Nc1cc(-c2nc3ccccc3nc2-c2ccc(F)cc2)ccn1 (stereo not given)
2,642 nM,CC(C)CNc1cc(-c2nc3ccccc3nc2-c2ccc(F)cc2)ccn1
3,3700 nM,Cc1cc2nc(-c3ccncc3)c(-c3ccc(F)cc3)nc2cc1C
4,6140 nM,COc1ccc2nc(-c3ccncc3)c(-c3ccc(F)cc3)nc2c1
5,38 nM,CC(C)Nc1cc(-c2nc3cccnc3nc2-c2ccc(F)cc2)ccn1
6,81 nM,CC(C)Nc1cc(-c2nc3ccccc3nc2-c2ccc(F)cc2)ccn1
7,333 nM,CC(C)Nc1cc(-c2nc3ncccc3nc2-c2ccc(F)cc2)ccn1
8,576 nM,CC(C)[C@H](C)Nc1cc(-c2nc3ccccc3nc2-c2ccc(F)cc2)ccn1
9,790 nM,CC(C)C(C)Nc1cc(-c2nc3ccccc3nc2-c2ccc(F)cc2)ccn1 (stereo not given)
10,3150 nM,Fc1ccc(-c2nc3ccccc3nc2-c2ccncc2)cc1
11,3190 nM,Fc1ccc(-c2nc3ncccc3nc2-c2ccncc2)cc1

# Target: T1, Mitogen-activated protein kinase 14
# Assay: Inhibition of p38alpha-mediated ATF2 phosphorylation at 10 uM in presence of ATP
row,Structure (SMILES),inhibition
1,Fc1ccc(-c2nc3cc(Cl)c(Cl)cc3nc2-c2ccnc(NCc3ccccc3)c2)cc1,37%
2,Fc1ccc(-c2nc3ccccc3nc2-c2ccnc(NCc3ccccc3)c2)cc1,9%

# Further lines, results first:
row,inhibition,Structure (SMILES)
1,33%,COc1ccc2nc(-c3ccc(F)cc3)c(-c3ccncc3)nc2c1
2,39%,Fc1ccc(-c2nc3cc(Cl)c(Cl)cc3nc2-c2ccncc2)cc1
3,46%,Fc1ccc(-c2nc3cccnc3nc2-c2ccncc2)cc1

# From ChEMBL document CHEMBL1156828, “Pyridinylquinoxalines and pyridinylpyridopyrazines as lead compounds for novel p38 alpha mitogen-activated protein kinase inhibitors” (J Med Chem, 2010)
